Results taken from US8742083B1, “Panel of micrornas that silence the MCL-1 gene and sensitize cancer cells to ABT-263” (AbbVie Inc., priority 2009, dated 2014).

Experiments:
Format in all cases: cell-based, human
HCT-116 cells = experiment: ABT-263 sensitization, CellTiter Glo cell viability after reverse transfection of miRNA/siRNA; conditions: for sensitization of HCT-116 cells to ABT-263, in words / sensitization of HCT-116 cells to ABT-263 (decrease in cell viability): 1 μM ABT-263, 48 hours; for sensitization of HCT-116 cells to ABT-263, in words: reverse transfection (miRNA 50 nM, siRNA 12.5 nM); for sensitization of HCT-116 cells to ABT-263 (decrease in cell viability): 50 nM miRNA mimic reverse transfected
Experimental: HCT-116 and CHL1 cells were purchased from the American Type Culture Collection (ATCC) and cultured in DMEM (Invitrogen Corp., Grand Island, N.Y.) supplemented with 10% fetal bovine serum (Invitrogen) and 1% penicillin/streptomycin (Invitrogen). All cell lines were maintained in a humidified chamber at 37° C. containing 5% CO2. These cells were authenticated by morphological, cell proliferation and Mycoplasma tests recommended in the ATCC Technical Bulletin no, 8 (2007). Cells were reverse transfected at 1.5−2.5×10^4 cells/[…] in 96-well tissue culture plates. siRNA or miRNA transfection was performed using Lipofectamine 2000 according to manufacturer's instructions (Invitrogen). For Mcl-1 and Bcl-xl siRNA transfections, a final concentration of 12.5 nM siRNA was used. For miRNA transfections, a final concentration of 50 nM miRNA was used. The cells were then grown in medium without antibiotic for 2 days before harvesting. For reporter experiments, 100 ng of pcDNA3-Mcl-1-3′UTR-luciferase reporter construct (21) was included in the liposome complex mix. Forty-eight hours after transfection, cells were assayed for viability using CellTiter Glo Luminescent cell viability assay according to the manufacturer's protocol (Promega). Caspase 3/7 activity was measured using the Caspase-Glo 3/7 assay (Promega). Luciferase activity was measured using the Steady-Glo reagent according to the manufacturer's protocol (Promega).
HCT-116 cells were reverse transfected as described in Example 1 above. Three replica plates were treated with 1 μM ABT-263 in media. […] HCT-116 cells were reverse transfected with sensitizing miRNAs in the presence or absence of 1 μM ABT-263 for 48 hours. Cell viability was measured with CellTiter Glo assay. MiR-29 and miR-125 were used as positive and negative controls for this assay. miRNAs that sensitize HCT-116 cells to ABT-263 by more than 25% are shown. FIG. 1B is a bar graph showing miRNAs that sensitize CHL1 cells to ABT-263. CHL1 cells were reverse transfected with sensitizing miRNAs in the presence or absence of 1 μM ABT-263 for 48 hours. Cell viability was measured with CellTiter Glo assay. Only miRNAs that sensitize HCT-116 cells to ABT-263 by more than 25% were shown. (See FIG. 6 for the complete list of 42 miRNAs). FIG. 1C is a bar graph showing modulation of Mcl-1 protein expression by sensitizing miRNAs in CHL1 cells. CHL1 cells were reverse transfected with sensitizing miRNAs. Mcl-1 expression was measured using a Luminex-based assay as described in the Methods section.
To identify miRNAs that modulate sensitivity of cells to Bcl-2 family inhibitor ABT-263, an miRNA “sensitization” screen was performed using an miRNA mimic library in the presence of ABT-263. The screen was conducted in a colon cancer cell line HCT-116. […] Synthetic miRNA mimics were reverse transfected into HCT-116 cells in the presence or absence of ABT-263 (FIG. 4). Reverse transfection of Mcl-1 siRNA and predicted Mcl-1-targeting miRNAs sensitized HCT-116 cells to 1 μM ABT-263 after 48 hours.
HCT-116 cells were reverse transfected with a library of 810 annotated miRNA mimics in triplicate in the presence of 1 μM ABT-263 (FIG. 5A). Viability of cells was determined after 2 days. […] Z-scores were used to select candidate miRNAs for subsequent experiments. Of 810 miRNA mimics, 80 increased cell death in the presence of ABT-263. Thirty-eight of these 80 miRNAs either reduced cell viability in the absence of ABT-263 (Z←1.5) or represented mimic replicates from the screen, and therefore were not subjected to further testing. The remaining 42 miRNAs were tested in a secondary screen to assess their effect in the presence or absence of ABT-263. MiR-29 and miR-125 were used as control for this screen. […] FIG. 6A identifies miRNAs that sensitize HCT-116 cells to ABT-263. HCT-116 cells were reverse transfected with sensitizing miRNAs in the presence or absence of 1 μM ABT-263 for 48 hours. Cell viability was measured with CellTiter Glo assay. […]

CHL1 cells = experiment: as above; conditions: no ABT-263
Experimental: (§1) HCT-116 and CHL1 cells were purchased from the American Type Culture Collection (ATCC) and cultured in DMEM (Invitrogen Corp., Grand Island, N.Y.) supplemented with 10% fetal bovine serum (Invitrogen) and 1% penicillin/streptomycin (Invitrogen). All cell lines were maintained in a humidified chamber at 37° C. containing 5% CO2. These cells were authenticated by morphological, cell proliferation and Mycoplasma tests recommended in the ATCC Technical Bulletin no, 8 (2007). Cells were reverse transfected at 1.5−2.5×10^4 cells/[…] in 96-well tissue culture plates. siRNA or miRNA transfection was performed using Lipofectamine 2000 according to manufacturer's instructions (Invitrogen). […] Caspase 3/7 activity was measured using the Caspase-Glo 3/7 assay (Promega). Luciferase activity was measured using the Steady-Glo reagent according to the manufacturer's protocol (Promega).
HCT-116 cells were reverse transfected as described in Example 1 above. […] Cell viability was measured with CellTiter Glo assay. […] Cell viability was measured with CellTiter Glo assay. […] Mcl-1 expression was measured using a Luminex-based assay as described in the Methods section.
HCT-116 cells were reverse transfected with a library of 810 annotated miRNA mimics in triplicate in the presence of 1 μM ABT-263 (FIG. 5A). Viability of cells was determined after 2 days. […] Cell viability was measured with CellTiter Glo assay. […]

Mcl-1 3′-UTR = Mcl-1 3′-UTR luciferase reporter assay in HCT-116 cells; conditions: HCT-116 cells cotransfected with 100 ng reporter, 48 hours
Experimental: as §1
MiRNA could modulate sensitivity to ABT-263 through several mechanisms: by directly targeting the Mcl-1 gene 3′-UTR and repressing protein translation or by targeting molecules involved in regulating Mcl-1 expression or function. […] Measure was taken of the effect of two Mcl-1 siRNAs and the twelve strongest sensitizing miRNAs on the Mcl-1 protein levels in HCT-116 cells using the Mcl-1 quantitative assay described above. […] Mcl-1 protein expression was measured using the Mcl-1 Luminex assay. […]

Mcl-1 = Mcl-1 protein expression, Luminex-based assay, in HCT-116 cells; conditions: 50 nM miRNA or Mcl-1 siRNA, 48 hours
Text: The present disclosure also provides a method for determining whether an miRNA increases sensitivity of a subject to treatment with a Bcl-2 family inhibitor. The method includes a) reverse transfecting a population of cancer cells with the candidate miRNA; b) contacting the cells with an effective amount of the Bcl-2 family inhibitor, and c) determining Mcl-1 expression level in the cells, wherein a decrease in Mcl-1 expression is indicative that the miRNA increases sensitivity of the subject to treatment with the Bcl-2 family inhibitor. Mcl-1 protein expression can be measured using a liquid phase immunoassay using Luminex beads. In brief, an Mcl-1 capture antibody is conjugated to Luminex beads (bead region 9) and an Mcl-1 detection antibody conjugated to biotin. […] Cell assay buffer is added after filtering and the plate is read using a Luminex 200 station. […]
Mcl-1 protein expression was measured using a new Mcl-1 assay based on the Luminex technology. […] Cell assay buffer was added after filtering and the plate was read using a Luminex 200 station. The liquid-phase quantitative protein assay was used to measure the levels of Mcl-1 in cells. […] Using this new Mcl-1 quantitative assay, the effect of these miRNAs on the Mcl-1 protein levels in CHL1 cells was measured. […]

CC1(C)CCC(c2ccc(Cl)cc2)=C(CN2CCN(c3ccc(C(=O)NS(=O)(=O)c4ccc(N[C@H](CCN5CCOCC5)CSc5ccccc5)c(S(=O)(=O)C(F)(F)F)c4)cc3)CC2)C1 [ABT-263, N-(4-(4-((2-(4-chlorophenyl)-5,5-dimethyl-1-cyclohex-1-en-1-yl)methyl)pip-erazin-1-yl)benzoyl)-4-(((1R)-3-(morpholin-4-yl)-1-((phenylsulfanyl)methyl-)propyl)amino)-3-((trifluoromethyl)sulfonyl)benzenesulfonamide]
effect of ABT-263 alone on HCT-116 cell viability (HCT-116 cells; in the presence of the control siRNA and miRNA): ≤ 25%

Mcl-1 siRNA: Mcl-1 targeting siRNA, sequence GCATCGAACCATTAGCAGATT (listed as DNA, chemistry not given here)
sensitization of HCT-116 cells to ABT-263, in words (HCT-116 cells): significantly sensitize | HCT-116 cell viability after transfection in the absence of ABT-263 (HCT-116 cells; no ABT-263): would not affect cell viability | CHL1 cell viability after transfection in the absence of ABT-263 (CHL1 cells): affected CHL1 cell viability

miR-29: control miRNA (positive control), sequence UAGCACCAUUUGAAAUCAGUGUU (listed as RNA, chemistry not given here)
sensitization of HCT-116 cells to ABT-263, in words (HCT-116 cells): much weaker

miR-125: control miRNA (negative control), sequence UCCCUGAGACCCUUUAACCUGUGA (listed as RNA, chemistry not given here)
sensitization of HCT-116 cells to ABT-263, in words (HCT-116 cells): did not sensitize

miR-153: sensitizing human miRNA, sequence UUGCAUAGUCACAAAAGUGAUC (listed as RNA, chemistry not given here)
sensitization of HCT-116 cells to ABT-263 (decrease in cell viability) (HCT-116 cells): ~50%

miR-193a: sensitizing human miRNA, sequence AACUGGCCUACAAAGUCCCAGU (listed as RNA, chemistry not given here)
sensitization of HCT-116 cells to ABT-263 (decrease in cell viability) (HCT-116 cells): ~50%

miR-605: sensitizing human miRNA, sequence UAAAUCCCAUGGUGCCUUCUCCU (listed as RNA, chemistry not given here)
luciferase activity of Mcl-1 3′-UTR reporter (Mcl-1 3′-UTR): did not reduce the luciferase activity | Mcl-1 protein expression in HCT-116 cells (Mcl-1): affected the Mcl-1 protein expression

miR-744*: sensitizing human miRNA, sequence CUGUUGCCACUAACCUCAACCU (listed as RNA, chemistry not given here)
luciferase activity of Mcl-1 3′-UTR reporter (Mcl-1 3′-UTR): did not reduce the luciferase activity | Mcl-1 protein expression in HCT-116 cells (Mcl-1): affected the Mcl-1 protein expression
